# Measurements from patent US20210317092A1 (BAYER PHARMA AKTIENGESELLSCHAFT, priority 2016, published 2021).
# Molecular target: T1, human Bradykinin B1 receptor (Homo sapiens, UniProt P46663)
# T1 construct: host or cells: CHO-K1
# T1 sequence (P46663 1-353): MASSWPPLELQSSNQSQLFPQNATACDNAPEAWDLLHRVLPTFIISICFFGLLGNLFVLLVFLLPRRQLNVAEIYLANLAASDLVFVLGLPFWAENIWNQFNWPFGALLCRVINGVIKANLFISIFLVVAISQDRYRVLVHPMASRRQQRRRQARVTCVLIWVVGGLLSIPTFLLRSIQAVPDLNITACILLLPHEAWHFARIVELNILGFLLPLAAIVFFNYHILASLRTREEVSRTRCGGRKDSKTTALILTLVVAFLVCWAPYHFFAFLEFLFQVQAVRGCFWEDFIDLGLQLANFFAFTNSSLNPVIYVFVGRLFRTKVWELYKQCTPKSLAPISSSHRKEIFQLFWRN
# Experiment: Calcium flux Assay (FLIPR) with recombinant CHO-K1 cells expressing human Bradykinin B1 receptor, in presence (hB1 IC50) or absence (hB1 free IC50) of 0.1% BSA
# Type: cell-based
# Conditions: in absence of 0.1% BSA, read-out: hB1 free IC50
row,SMILES,IC50
1,"COc1cc(C2(C(=O)Nc3ccc(-c4ccnc(C(F)(F)F)c4)c(-c4nnn[nH]4)c3)CC2)ccc1F [Example 180, 1-(4-fluoro-3-methoxyphenyl)-N-{3-(1H-tetrazol-5-yl)-4-[2-(trifluoromethyl)pyridin-4-yl]phenyl} cyclopropane-carboxamide]",768 nM
2,"O=C(Nc1ccc(-c2ccnc(F)c2)c(-c2nnn[nH]2)c1)C1(c2cccc(Cl)c2)CC1 [Example 182, 1-(3-chlorophenyl)-N-[4-(2-fluoropyridin-4-yl)-3-(1H-tetrazol-5-yl)phenyl] cyclopropane-carboxamide]",185 nM
3,O=C(Nc1ccc(-c2cnc(NC3CC3)nc2)c(-c2nnn[nH]2)c1)C1(c2cccc(Cl)c2)CC1 [Example 185],251 nM
4,"N#Cc1ccc(-c2ccc(NC(=O)C3(c4cccc(Cl)c4)CC3)cc2-c2nnn[nH]2)cc1F [Example 186, 1-(3-chlorophenyl)-N-[4′-cyano-3′-fluoro-2-(1H-tetrazol-5-yl)biphenyl-4-yl]cyclopropane carboxamide]",252 nM
5,"COc1ncccc1-c1ccc(NC(=O)C2(c3cccc(Cl)c3)CC2)cc1-c1nnn[nH]1 [Example 187, 1-(3-chlorophenyl)-N-[4-(2-methoxypyridin-3-yl)-3-(1H-tetrazol-5-yl)phenyl] cyclopropane-carboxamide]",1620 nM
6,"CO[C@H]1CC[C@@H](c2ccc(NC(=O)C3(c4cccc(Cl)c4F)CC3)cc2-c2nnn[nH]2)CC1 [Example 189, 1-(3-chloro-2-fluorophenyl)-N-[4-(cis-4-methoxy-cyclohexyl)-3-(1H-tetrazol-5-yl)phenyl] cyclopropane-carboxamide]",2350 nM
7,"Cc1ncc(-c2ccc(NC(=O)C3(c4cccc(Cl)c4)CC3)cc2-c2nnn[nH]2)cn1 [Example 194, 1-(3-chlorophenyl)-N-[4-(2-methylpyrimidin-5-yl)-3-(1H-tetrazol-5-yl)phenyl] cyclopropane-carboxamide]",569 nM
8,"Cc1ncc(-c2ccc(NC(=O)C3(c4cccc(Cl)c4F)CC3)cc2-c2nnn[nH]2)cn1 [Example 195, 1-(3-chloro-2-fluorophenyl)-N-[4-(2-methylpyrimidin-5-yl)-3-(1H-tetrazol-5-yl)phenyl] cyclopropane-carboxamide]",183 nM
9,"O=C(Nc1ccc(-c2cnc(C(F)(F)F)nc2)c(-c2nnn[nH]2)c1)C1(c2cccc(Cl)c2F)CC1 [Example 197, 1-(3-chloro-2-fluorophenyl)-N-{3-(1H-tetrazol-5-yl)-4-[2-(trifluoromethyl)pyrimidin-5-yl]phenyl} cyclopropane-carboxamide]",493 nM
10,"O=C(Nc1ccc(-c2cnc(C(F)(F)F)nc2)c(-c2nnn[nH]2)c1)C1(c2ccc(OC(F)(F)F)cc2)CC1 [Example 198, N-{3-(1H-tetrazol-5-yl)-4-[2-(trifluoromethyl)pyrimidin-5-yl]phenyl}-1-[4-(trifluoromethoxy)phenyl] cyclopropane-carboxamide]",943 nM
11,"COc1cc(-c2ccc(NC(=O)C3(c4cccc(Cl)c4)CC3)cc2-c2nnn[nH]2)cc(C(F)(F)F)n1 [Example 199, 1-(3-chlorophenyl)-N-{4-[2-methoxy-6-(trifluoromethyl)pyridin-4-yl]-3-(1H-tetrazol-5-yl)phenyl} cyclopropane-carboxamide]",1580 nM
12,"CS(=O)(=O)c1ccc(-c2ccc(NC(=O)C3(c4cccc(Cl)c4)CC3)cc2-c2nnn[nH]2)cn1 [Example 200, 1-(3-chlorophenyl)-N-{4-[6-(methylsulfonyl)pyridin-3-yl]-3-(1H-tetrazol-5-yl)phenyl} cyclopropane-carboxamide]",1170 nM
13,"CS(=O)(=O)c1ccc(-c2ccc(NC(=O)C3(c4ccc(C(F)(F)F)cc4F)CC3)cc2-c2nnn[nH]2)cn1 [Example 201, 1-[2-fluoro-4-(trifluoromethyl)phenyl]-N-{4-[6-(methylsulfonyl)pyridin-3-yl]-3-(1H-tetrazol-5-yl)phenyl} cyclopropane-carboxamide]",374 nM
14,"O=C(Nc1ccc(-c2ccc(C(F)(F)F)nc2)c(-c2nnn[nH]2)c1)C1(c2ccc(F)cc2)CC1 [Example 204, 1-(4-fluorophenyl)-N-{3-(1H-tetrazol-5-yl)-4-[6-(trifluoromethyl)pyridin-3-yl]phenyl} cyclopropane-carboxamide]",125 nM
15,"O=C(Nc1ccc(-c2cnc(C(F)(F)F)nc2)c(-c2nnn[nH]2)c1)C1(c2ccc(C(F)(F)F)cc2)CC1 [Example 205, N-{3-(1H-tetrazol-5-yl)-4-[2-(trifluoromethyl)pyrimidin-5-yl]phenyl)-1-[4-(trifluoromethyl)phenyl] cyclopropane-carboxamide]",170 nM
16,"O=C(Nc1ccc(-c2ccnc(C(F)F)c2)c(-c2nnn[nH]2)c1)C1(c2ccc(F)c(F)c2)CC1 [Example 206, N-{4-[2-(difluoromethyl)pyridin-4-yl]-3-(1H-tetrazol-5-yl)phenyl}-1-(3,4-difluorophenyl) cyclopropane-carboxamide]",485 nM
17,"Cc1cc(-c2ccc(NC(=O)C3(c4cccc(Cl)c4)CC3)cc2-c2nnn[nH]2)ccn1 [Example 210, 1-(3-chlorophenyl)-N-[4-(2-methylpyridin-4-yl)-3-(1H-tetrazol-5-yl)phenyl] cyclopropane-carboxamide]",131 nM

# The remaining lines, values ahead:
row,IC50,SMILES
1,86.8 nM,"CCOc1ccc(-c2ncc(NC(=O)C3(c4ccc(C(F)(F)F)cc4F)CC3)cc2-c2nnn[nH]2)cn1 [Example 219, N-[6′-ethoxy-3-(1H-tetrazol-5-yl)-2,3′-bipyridin-5-yl]-1-[2-fluoro-4-(trifluoromethyl)phenyl] cyclopropane-carboxamide]"
2,16 nM,"Cc1cc(-c2c(F)cc(NC(=O)C3(c4cccc(Cl)c4)CC3)cc2-c2nnn[nH]2)ccn1 [Example 246, 1-(3-chlorophenyl)-N-[3-fluoro-4-(2-methylpyridin-4-yl)-5-(1H-tetrazol-5-yl)phenyl] cyclopropane carboxamide]"

# Same assay, conditions: in presence of 0.1% BSA, read-out: hB1 IC50
row,SMILES,IC50
1,"O=C(Nc1ccc(-c2ccnc(F)c2)c(-c2nnn[nH]2)c1)C1(c2cccc(Cl)c2)CC1 [Example 182, 1-(3-chlorophenyl)-N-[4-(2-fluoropyridin-4-yl)-3-(1H-tetrazol-5-yl)phenyl] cyclopropane-carboxamide]",1350 nM
2,"Cc1ncc(-c2ccc(NC(=O)C3(c4cccc(Cl)c4)CC3)cc2-c2nnn[nH]2)cn1 [Example 194, 1-(3-chlorophenyl)-N-[4-(2-methylpyrimidin-5-yl)-3-(1H-tetrazol-5-yl)phenyl] cyclopropane-carboxamide]",575 nM
3,"Cc1ncc(-c2ccc(NC(=O)C3(c4cccc(Cl)c4F)CC3)cc2-c2nnn[nH]2)cn1 [Example 195, 1-(3-chloro-2-fluorophenyl)-N-[4-(2-methylpyrimidin-5-yl)-3-(1H-tetrazol-5-yl)phenyl] cyclopropane-carboxamide]",311 nM
4,"O=C(Nc1ccc(-c2cnc(C(F)(F)F)nc2)c(-c2nnn[nH]2)c1)C1(c2cccc(Cl)c2F)CC1 [Example 197, 1-(3-chloro-2-fluorophenyl)-N-{3-(1H-tetrazol-5-yl)-4-[2-(trifluoromethyl)pyrimidin-5-yl]phenyl} cyclopropane-carboxamide]",993 nM
5,"COc1cc(-c2ccc(NC(=O)C3(c4cccc(Cl)c4)CC3)cc2-c2nnn[nH]2)cc(C(F)(F)F)n1 [Example 199, 1-(3-chlorophenyl)-N-{4-[2-methoxy-6-(trifluoromethyl)pyridin-4-yl]-3-(1H-tetrazol-5-yl)phenyl} cyclopropane-carboxamide]",2400 nM
6,"Cc1cc(-c2ccc(NC(=O)C3(c4cccc(Cl)c4)CC3)cc2-c2nnn[nH]2)ccn1 [Example 210, 1-(3-chlorophenyl)-N-[4-(2-methylpyridin-4-yl)-3-(1H-tetrazol-5-yl)phenyl] cyclopropane-carboxamide]",78 nM

# Next, values leading:
row,IC50,SMILES
1,160 nM,"O=C(Nc1cc(-c2nnn[nH]2)c(-c2ccc(C(F)(F)F)nc2)cc1O)C1(c2ccc(Cl)cc2F)CC1 [Example 221, 1-(4-chloro-2-fluorophenyl)-N-{2-hydroxy-5-(1H-tetrazol-5-yl)-4-[6-(trifluoromethyl)pyridin-3-yl]phenyl} cyclopropane-carboxamide]"
2,84 nM,"O=C(Nc1cc(-c2nnn[nH]2)c(-c2ccc(C(F)(F)F)nc2)cc1O)C1(c2cc(F)cc(Cl)c2)CC1 [Example 223, 1-(3-chloro-5-fluorophenyl)-N-{2-hydroxy-5-(1H-tetrazol-5-yl)-4-[6-(trifluoromethyl)pyridin-3-yl]phenyl} cyclopropane-carboxamide]"
3,88.9 nM,"O=C(Nc1cc(-c2nnn[nH]2)c(-c2ccc(C(F)(F)F)nc2)cc1O)C1(c2cccc(Cl)c2F)CC1 [Example 225, 1-(3-chloro-2-fluorophenyl)-N-{2-hydroxy-5-(1H-tetrazol-5-yl)-4-[6-(trifluoromethyl)pyridin-3-yl]phenyl} cyclopropane-carboxamide]"
4,105 nM,"O=C(Nc1cc(-c2nnn[nH]2)c(-c2ccc(C(F)(F)F)nc2)cc1O)C1(c2ccc(Cl)cc2)CC1 [Example 226, 1-(4-chlorophenyl)-N-{2-hydroxy-5-(1H-tetrazol-5-yl)-4-[6-(trifluoromethyl)pyridin-3-yl]phenyl} cyclopropane-carboxamide]"
5,88.2 nM,"O=C(Nc1cc(-c2nnn[nH]2)c(-c2ccc(C(F)(F)F)nc2)cc1O)C1(c2ccc(F)cc2F)CC1 [Example 228, 1-(2,4-Difluorophenyl)-N-{2-hydroxy-5-(1H-tetrazol-5-yl)-4-[6-(trifluoromethyl)pyridin-3-yl]phenyl} cyclopropane-carboxamide]"
6,1280 nM,"COc1ccc(-c2cc(F)c(NC(=O)C3(c4cc(Cl)ccc4F)CC3)cc2-c2nnn[nH]2)cc1 [Example 229, 1-(5-Chloro-2-fluorophenyl)-N-[5-fluoro-4′-methoxy-2-(1H-tetrazol-5-yl)biphenyl-4-yl]cyclopropane carboxamide]"
7,2100 nM,"COc1ccc(-c2cc(F)c(NC(=O)C3(c4ccc(F)c(Cl)c4)CC3)cc2-c2nnn[nH]2)cc1C [Example 230, 1-(3-Chloro-4-fluorophenyl)-N-[5-fluoro-4′-methoxy-3′-methyl-2-(1H-tetrazol-5-yl)biphenyl-4-yl]cyclopropane-carboxamide]"
8,2200 nM,"COc1ccc(-c2cc(F)c(NC(=O)C3(c4ccc(Cl)cc4F)CC3)cc2-c2nnn[nH]2)cc1C [Example 231, 1-(4-Chloro-2-fluorophenyl)-N-[5-fluoro-4′-methoxy-3′-methyl-2-(1H-tetrazol-5-yl)biphenyl-4-yl]cyclopropane carboxamide]"
9,53.6 nM,"COc1ccc(-c2c(F)cc(NC(=O)C3(c4ccc(F)cc4F)CC3)cc2-c2nnn[nH]2)cc1OC [Example 235, 1-(2,4-Difluorophenyl)-N-[2-fluoro-3′,4′-dimethoxy-6-(1H-tetrazol-5-yl)biphenyl-4-yl]cyclopropane carboxamide]"
10,1760 nM,"CCOc1ccc(-c2cc(C)c(NC(=O)C3(c4cccc(Cl)c4)CC3)cc2-c2nnn[nH]2)cc1OC [Example 249, 1-(3-Chlorophenyl)-N-[4′-ethoxy-3′-methoxy-5-methyl-2-(1H-tetrazol-5-yl)biphenyl-4-yl]cyclopropane carboxamide]"
11,240 nM,"COc1ccc(-c2c(C)cc(NC(=O)C3(c4cccc(Cl)c4)CC3)cc2-c2nnn[nH]2)cc1OC [Example 250, 1-(3-Chlorophenyl)-N-[3′,4′-dimethoxy-2-methyl-6-(1H-tetrazol-5-yl)biphenyl-4-yl]cyclopropane carboxamide]"
